Results on two compounds are retold here after patent US12516056B2, “Compounds for inhibition of janus kinase 1” (MANKIND PHARMA LTD., priority 2019, dated 2026).

One assay concerns the target T1, Recombinant JAK1 (Homo sapiens, UniProt P23458).
T1 construct: purchased Carna Biosciences
Description: JAK biochemical assay (LANCE Ultra TR-FRET), JAK1. In outline:
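Kinase reactions ran in buffer of 50 mM HEPES pH 7.5 with 1 mM EGTA, 10 mM MgCl2, 2 mM DTT and 0.01% Tween-20, using recombinant enzyme. Phosphorylated ULight substrate was detected by TR-FRET, and compound effect expressed as % inhibition against vehicle.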

Assay [1] has as its system STAT5 phosphorylation by GMCSF in TF-1 cells. Put plainly: JAK cellular assay: STAT5 phosphorylation by GMCSF in TF-1 cells (HTRF). It is filed as cell-based. As to conditions: Homo sapiens, TF-1 cells. The essentials: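 Phospho-STAT3 (IL-6, 30 ng/ml) and phospho-STAT5 (GMCSF, 5 ng/ml) read by HTRF in lysates after 20 min cytokine exposure, minus unstimulated-cell background. Cells were serum-starved overnight, plated at 120,000/well, given compound 30 min at 37 °C beforehand; DMSO 0.2% final.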

Assay [2] concerns STAT5 phosphorylation by IL-2 in HT-2 cells. Put plainly: STAT5 phosphorylation by IL-2 in HT-2 cells (HTRF). It is filed as cell-based. As to conditions: HT2, HT-2 cells. The essentials:
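Readout is HTRF detection of phospho-STAT5 in lysates, corrected for signal from unstimulated cells. Before lysis, HT-2 cells starved in 10% FBS medium received compound for 30 min (0.2% DMSO final, 37 °C), followed by 50 U/ml recombinant human IL-2 for 20 min.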
Background: In TR-FRET formats the signal depends on donor and acceptor labels being close together.

The test system of assay [3] is IFN-γ production in NK 92 cells by IL-12. Put plainly: IFN-γ production in NK 92 cells by IL-12 (ELISA). Particulars: NK92, IFN-γ detection from cell supernatants, read-out: Cell based IC50 (μM) NK-92/IL-12*. How it is done: NK 92 cells were cultured in medium without IL-2 for overnight. Next day, 5000 cells per well NK 92 cells were seeded in a 96 well plate. Compounds were added to cells and incubated for 1 hour. Later IL-12, 10 U/ml was added to cells and incubated for overnight. Supernatant was collected from the wells and IFN-7 secretion was measured by using human IFN-7 ELISA kit. Absorbance was measured at 450 nm in BMG FLUOstar. Background signal obtained from cells which were not activated with cytokines, was subtracted from vehicle controls and compound treated wells.
(In general: In an ELISA, binding on a coated surface is turned into a signal by an enzyme label.)

The test system of assay [4] is Imiquimod induced dermatitis in mice. Description: Mouse model of Imiquimod induced psoriasis. It is filed as in vivo, Female BALB/c mice. As to conditions: 3% topical, QD; for back skin thickness / cumulative psoriasis score compared to vehicle / ear thickness: IMQ induced psoriasis, mice. How it is done: Imiquimod (IMQ) induced dermatitis closely resembles human psoriasis lesions not only with regard to phenotypic and histological characteristics but also in the development of the lesions. IMQ is a ligand for toll-like receptor 7 (TLR7) and TLR8, and is a potent immune activator. […] Migration of activated dermal dendritic cells to lymph nodes in skin triggers a sequence of events leading to late phase of psoriasis. Compounds described herein are tested for JAK inhibition driven efficacy in Imiquimod induced dermatitis in mice.
Female BALB/c mice were topically dosed with 3% cream formulation containing test compounds. After four hours of test compound administration, 5% Imiquimod was applied on back skin and right ear for five days. On day 6, post dosing with test compounds, the severity of psoriasis was monitored and graded following Psoriasis Area and Severity Index (PASI). Efficacies of the compounds were evaluated based on PASI score. Redness, thickness and scaling of back skin and ear were assessed among the groups for scoring.

Where [5] appears, read: read-out: Biochemical IC50 (nM) JAK1.
[6] abbreviates: recombinant JAK1, TR-FRET, read-out: Biochemical Assay (μM) JAK1.
Where [7] appears, read: GM-CSF stimulation, read-out: Cell based IC50 (μM) TF-1/GM-CSF.
Setting [8] is: IL-2 50 U/ml, pSTAT5 HTRF, read-out: Cell Based Assay (μM) HT-2/IL-2/pSTAT5.
The mark [9] stands for this setting: IL-2 stimulation, read-out: Cell based IC50 (μM) HT-2/IL-2.

Where two headings read alike, the source gives them in different places. Bounds are passed on as bounds.

T1 sequence (P23458 whole entry): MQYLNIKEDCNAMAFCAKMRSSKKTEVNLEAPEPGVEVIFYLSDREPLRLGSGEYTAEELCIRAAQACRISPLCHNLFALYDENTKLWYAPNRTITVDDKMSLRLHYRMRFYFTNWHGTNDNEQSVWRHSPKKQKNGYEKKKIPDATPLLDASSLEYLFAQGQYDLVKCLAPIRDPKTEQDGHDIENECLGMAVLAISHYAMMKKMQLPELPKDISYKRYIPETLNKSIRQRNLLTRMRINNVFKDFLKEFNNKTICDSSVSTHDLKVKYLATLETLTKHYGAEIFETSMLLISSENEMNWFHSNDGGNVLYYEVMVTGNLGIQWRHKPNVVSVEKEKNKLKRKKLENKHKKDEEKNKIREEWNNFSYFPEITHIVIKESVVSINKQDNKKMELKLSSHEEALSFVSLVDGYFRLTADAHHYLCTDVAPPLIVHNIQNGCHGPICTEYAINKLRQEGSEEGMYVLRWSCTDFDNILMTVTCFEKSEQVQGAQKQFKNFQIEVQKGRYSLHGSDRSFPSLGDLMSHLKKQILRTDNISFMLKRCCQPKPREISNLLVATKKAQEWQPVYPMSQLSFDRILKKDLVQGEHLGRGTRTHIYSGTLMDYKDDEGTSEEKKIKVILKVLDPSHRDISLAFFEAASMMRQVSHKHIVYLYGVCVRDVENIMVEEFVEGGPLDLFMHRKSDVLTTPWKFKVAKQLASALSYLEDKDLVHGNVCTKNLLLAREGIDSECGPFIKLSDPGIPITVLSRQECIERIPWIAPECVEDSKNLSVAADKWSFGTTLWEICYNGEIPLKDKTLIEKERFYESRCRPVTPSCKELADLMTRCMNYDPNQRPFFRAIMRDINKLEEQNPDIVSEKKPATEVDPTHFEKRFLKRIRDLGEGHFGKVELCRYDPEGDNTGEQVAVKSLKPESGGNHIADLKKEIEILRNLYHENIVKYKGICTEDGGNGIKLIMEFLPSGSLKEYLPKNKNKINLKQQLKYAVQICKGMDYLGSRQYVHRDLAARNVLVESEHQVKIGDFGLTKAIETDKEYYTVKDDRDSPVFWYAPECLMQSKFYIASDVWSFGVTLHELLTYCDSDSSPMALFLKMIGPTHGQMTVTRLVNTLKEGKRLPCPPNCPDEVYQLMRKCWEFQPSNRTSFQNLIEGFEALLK

As to `CC(C)NC(=O)CC[C@@H](c1ccc(-n2cc(-c3ccnc4[nH]cnc34)cn2)nc1)C(F)(F)F` [Example 1215, (S)-4-(6-(4-(3H-imidazo[4,5-b]pyridin-7-yl)-1H-pyrazol-1-yl)pyridin-3-yl)-5,5,5-trifluoro-N-isopropylpentanamide], the IC50 at Recombinant JAK1 (setting [5]) is 0.5 nM; at Recombinant JAK1 (setting [6]), below 100 nM; in assay [1] (setting [7]), above 10 µM; in assay [2] (setting [8]) it was 0.75 µM; in assay [2] (setting [9]), 0.7 µM; in assay [3] it was above 10 µM. For the same compound, the “efficacy compared to 1133 and reference compound filgotinib (psoriasis model)” value in assay [4] is reported as “better efficacy”. Further, the back skin thickness entry in assay [4] is given as “significant decrease”. Also, the “cumulative psoriasis score compared to vehicle” value in assay [4] was “statistically significant decrease”. Also, the ear thickness result in assay [4] was “significant decrease”.

On to `CN1CCC(C(O)(c2ccc(-n3cc(-c4ccnc5[nH]cnc45)cn3)nc2)C(F)(F)F)CC1` (centres unmarked) [Example 1133, 1-(6-(4-(3H-imidazo[4,5-b]pyridin-7-yl)-1H-pyrazol-1-yl)pyridin-3-yl)-2,2,2-trifluoro-1-(1-methylpiperidin-4-yl)ethanol], for which the IC50 on Recombinant JAK1 (setting [5]) was 8 nM; on Recombinant JAK1 (setting [6]) it was below 100 nM; in assay [1] (setting [7]) it was above 10 µM; in assay [1] (GMCSF 5 ng/ml, pSTAT5 HTRF, read-out: Cell Based Assay (μM) TF-1/GMCSF/pSTAT5), above 10 µM; in assay [2] (setting [8]), 2.3 µM; in assay [2] (setting [9]) it was 2.3 µM. Also, in assay [3], the IC50 was above 10 µM. Moreover, in assay [4], the back skin thickness entry is “significant decrease”. For the same compound, the “cumulative psoriasis score compared to vehicle” value in assay [4] is reported as “statistically significant decrease”. Further, the ear thickness entry in assay [4] is “significant decrease”.
